Assays:
Assay in all cases: SelectScreen kinase selectivity assay
Assay type in all cases: biochemical
MUSK = biological target: T1, MUSK (Homo sapiens, UniProt O15146)
T1 construct: purchased Thermo Fisher Scientific (SelectScreen service)
Experimental: (§1) The kinase selectivity analysis of PKHD-5 was performed using the SelectScreen kinase analysis service provided by Thermo Fisher Scientific. The experiment initially involved the preparation of a series of inhibitor solutions at varying concentrations, which were then reacted with various kinase targets under standardized conditions to calculate the percentage inhibition for each test solution. Ultimately, the IC50 values were calculated based on the concentration-inhibition curves by fitting a four-parameter logistic curve, thereby assessing the potency and selectivity of the inhibitors. The analysis results are detailed in Supplementary Table S1.

INSR = biological target: T2, INSR (Homo sapiens, UniProt P06213)
T2 construct: purchased Thermo Fisher Scientific (SelectScreen service)
Experimental: as §1

PTK2 = biological target: T3, PTK2 (Homo sapiens, UniProt Q05397)
T3 construct: purchased Thermo Fisher Scientific (SelectScreen service)
Experimental: as §1

PLK3 = biological target: T4, PLK3 (Homo sapiens, UniProt Q9H4B4)
T4 construct: purchased Thermo Fisher Scientific (SelectScreen service)
Experimental: as §1

FGFR2 = biological target: T5, FGFR2 (Homo sapiens, UniProt P21802)
T5 construct: purchased Thermo Fisher Scientific (SelectScreen service)
Experimental: as §1

FGFR1 = biological target: T6, FGFR1 (Homo sapiens, UniProt P11362)
T6 construct: purchased Thermo Fisher Scientific (SelectScreen service)
Experimental: as §1

YES1 = biological target: T7, YES1 (Homo sapiens, UniProt P07947)
T7 construct: purchased Thermo Fisher Scientific (SelectScreen service)
Experimental: as §1

BLK = biological target: T8, BLK (Homo sapiens, UniProt P51451)
T8 construct: purchased Thermo Fisher Scientific (SelectScreen service)
T8 sequence (P51451 whole entry): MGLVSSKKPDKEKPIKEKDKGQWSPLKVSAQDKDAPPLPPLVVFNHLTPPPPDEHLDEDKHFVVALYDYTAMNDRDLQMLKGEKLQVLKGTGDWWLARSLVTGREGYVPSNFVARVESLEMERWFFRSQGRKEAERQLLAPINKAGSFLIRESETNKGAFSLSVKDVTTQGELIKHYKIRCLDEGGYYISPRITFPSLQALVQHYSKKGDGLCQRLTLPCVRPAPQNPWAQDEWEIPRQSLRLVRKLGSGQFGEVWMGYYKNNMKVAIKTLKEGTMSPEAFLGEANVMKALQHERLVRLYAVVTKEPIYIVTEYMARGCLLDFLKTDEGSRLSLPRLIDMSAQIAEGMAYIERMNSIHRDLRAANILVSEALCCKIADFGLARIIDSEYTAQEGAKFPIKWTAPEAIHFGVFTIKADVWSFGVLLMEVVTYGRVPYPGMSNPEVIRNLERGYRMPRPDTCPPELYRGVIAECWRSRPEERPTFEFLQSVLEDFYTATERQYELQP
Experimental: as §1

JAK1 = biological target: T9, JAK1 (Homo sapiens, UniProt P23458)
T9 construct: purchased Thermo Fisher Scientific (SelectScreen service)
Experimental: as §1

CSF1R = biological target: T10, CSF1R (Homo sapiens, UniProt P07333)
T10 construct: purchased Thermo Fisher Scientific (SelectScreen service)
Experimental: as §1

NTRK1 = biological target: T11, NTRK1 (Homo sapiens, UniProt P04629)
T11 construct: purchased Thermo Fisher Scientific (SelectScreen service)
T11 sequence (P04629 33-796): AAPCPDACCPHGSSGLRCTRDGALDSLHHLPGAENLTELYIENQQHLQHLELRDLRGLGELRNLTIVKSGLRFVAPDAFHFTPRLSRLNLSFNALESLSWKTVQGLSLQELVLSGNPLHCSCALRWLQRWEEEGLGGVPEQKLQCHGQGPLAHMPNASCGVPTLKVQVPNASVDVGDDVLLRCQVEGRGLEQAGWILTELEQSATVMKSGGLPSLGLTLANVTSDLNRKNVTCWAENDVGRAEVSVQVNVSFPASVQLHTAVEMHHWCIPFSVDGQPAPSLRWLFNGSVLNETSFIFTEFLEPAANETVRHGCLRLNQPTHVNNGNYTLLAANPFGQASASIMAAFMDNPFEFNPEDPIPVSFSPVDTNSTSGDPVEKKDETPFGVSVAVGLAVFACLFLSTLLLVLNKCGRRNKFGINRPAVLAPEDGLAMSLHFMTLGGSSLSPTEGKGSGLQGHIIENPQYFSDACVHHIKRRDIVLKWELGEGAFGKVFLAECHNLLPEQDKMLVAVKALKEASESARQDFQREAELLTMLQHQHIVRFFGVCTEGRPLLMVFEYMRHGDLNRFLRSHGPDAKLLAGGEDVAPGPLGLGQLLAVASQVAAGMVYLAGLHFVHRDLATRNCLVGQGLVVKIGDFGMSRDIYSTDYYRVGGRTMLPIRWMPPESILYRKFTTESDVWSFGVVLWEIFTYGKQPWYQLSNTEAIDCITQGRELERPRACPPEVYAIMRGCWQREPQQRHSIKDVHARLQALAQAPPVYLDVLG
Experimental: as §1

RAF1 = biological target: T12, RAF1 (Homo sapiens, UniProt P04049, Y340D/Y341D)
T12 construct: purchased Thermo Fisher Scientific (SelectScreen service)
Experimental: as §1

KIT = biological target: T13, KIT (Homo sapiens, UniProt P10721)
T13 construct: purchased Thermo Fisher Scientific (SelectScreen service)
Experimental: as §1

HCK = biological target: T14, HCK (Homo sapiens, UniProt P08631)
T14 construct: purchased Thermo Fisher Scientific (SelectScreen service)
Experimental: as §1

KDR = biological target: T15, KDR (Homo sapiens, UniProt P35968)
T15 construct: purchased Thermo Fisher Scientific (SelectScreen service)
Experimental: as §1

FRK = biological target: T16, FRK (Homo sapiens, UniProt P42685)
T16 construct: purchased Thermo Fisher Scientific (SelectScreen service)
T16 sequence (P42685 whole entry): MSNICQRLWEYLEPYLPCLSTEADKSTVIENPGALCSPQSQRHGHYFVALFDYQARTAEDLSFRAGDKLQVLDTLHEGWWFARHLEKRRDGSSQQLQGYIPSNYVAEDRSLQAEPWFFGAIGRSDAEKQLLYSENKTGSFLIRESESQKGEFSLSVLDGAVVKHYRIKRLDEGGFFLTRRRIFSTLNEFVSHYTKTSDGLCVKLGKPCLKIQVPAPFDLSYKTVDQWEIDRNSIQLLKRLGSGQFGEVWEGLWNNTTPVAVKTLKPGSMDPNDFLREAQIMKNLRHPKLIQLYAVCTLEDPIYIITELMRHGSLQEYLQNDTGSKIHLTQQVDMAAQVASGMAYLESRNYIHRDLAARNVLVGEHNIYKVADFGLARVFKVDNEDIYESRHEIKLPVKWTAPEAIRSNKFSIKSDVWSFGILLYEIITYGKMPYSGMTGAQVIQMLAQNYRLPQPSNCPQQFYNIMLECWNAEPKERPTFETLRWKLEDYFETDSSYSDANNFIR
Experimental: as §1

EPHA6 = biological target: T17, EPHA6 (Homo sapiens, UniProt Q9UF33)
T17 construct: purchased Thermo Fisher Scientific (SelectScreen service)
Experimental: as §1

FYN = biological target: T18, FYN (Homo sapiens, UniProt P06241)
T18 construct: purchased Thermo Fisher Scientific (SelectScreen service)
Experimental: as §1

EPHB2 = biological target: T19, EPHB2 (Homo sapiens, UniProt P29323)
T19 construct: purchased Thermo Fisher Scientific (SelectScreen service)
Experimental: as §1

MET = biological target: T20, MET (Homo sapiens, UniProt P08581)
T20 construct: purchased Thermo Fisher Scientific (SelectScreen service)
Experimental: as §1

MST1R = biological target: T21, MST1R (Homo sapiens, UniProt Q04912)
T21 construct: purchased Thermo Fisher Scientific (SelectScreen service)
Experimental: as §1

ABL2 = biological target: T22, ABL2 (Homo sapiens, UniProt P42684)
T22 construct: purchased Thermo Fisher Scientific (SelectScreen service)
Experimental: as §1

EPHA3 = biological target: T23, EPHA3 (Homo sapiens, UniProt P29320)
T23 construct: purchased Thermo Fisher Scientific (SelectScreen service)
T23 sequence (P29320 21-983): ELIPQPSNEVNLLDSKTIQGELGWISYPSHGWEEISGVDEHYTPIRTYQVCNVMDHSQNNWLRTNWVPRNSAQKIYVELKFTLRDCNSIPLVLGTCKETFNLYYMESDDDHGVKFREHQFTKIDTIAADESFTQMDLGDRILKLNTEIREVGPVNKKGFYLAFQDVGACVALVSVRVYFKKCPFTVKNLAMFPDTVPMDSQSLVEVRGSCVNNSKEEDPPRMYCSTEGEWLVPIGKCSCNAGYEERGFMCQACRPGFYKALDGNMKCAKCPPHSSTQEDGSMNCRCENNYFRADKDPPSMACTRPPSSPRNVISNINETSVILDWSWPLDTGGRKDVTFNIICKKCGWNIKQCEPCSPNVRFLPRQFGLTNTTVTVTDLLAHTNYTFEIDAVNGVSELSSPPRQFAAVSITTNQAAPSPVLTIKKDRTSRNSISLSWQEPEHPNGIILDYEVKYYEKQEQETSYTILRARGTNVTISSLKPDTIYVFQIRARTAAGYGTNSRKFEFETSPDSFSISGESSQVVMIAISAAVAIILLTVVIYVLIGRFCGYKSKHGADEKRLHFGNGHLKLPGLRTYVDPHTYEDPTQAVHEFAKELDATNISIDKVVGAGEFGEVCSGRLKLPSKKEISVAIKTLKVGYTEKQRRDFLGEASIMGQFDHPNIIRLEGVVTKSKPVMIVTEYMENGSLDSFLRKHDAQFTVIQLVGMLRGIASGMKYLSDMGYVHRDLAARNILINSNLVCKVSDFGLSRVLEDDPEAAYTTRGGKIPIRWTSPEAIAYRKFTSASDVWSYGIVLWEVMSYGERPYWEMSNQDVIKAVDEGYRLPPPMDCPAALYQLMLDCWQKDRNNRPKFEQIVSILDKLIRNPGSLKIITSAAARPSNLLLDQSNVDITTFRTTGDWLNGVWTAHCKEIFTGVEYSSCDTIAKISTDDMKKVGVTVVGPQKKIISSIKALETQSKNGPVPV
Experimental: as §1

TYRO3 = biological target: T24, TYRO3 (Homo sapiens, UniProt Q06418)
T24 construct: purchased Thermo Fisher Scientific (SelectScreen service)
Experimental: as §1

EPHA8 = biological target: T25, EPHA8 (Homo sapiens, UniProt P29322)
T25 construct: purchased Thermo Fisher Scientific (SelectScreen service)
Experimental: as §1

EPHA2 = biological target: T26, EPHA2 (Homo sapiens, UniProt P29317)
T26 construct: purchased Thermo Fisher Scientific (SelectScreen service)
T26 sequence (P29317 24-976): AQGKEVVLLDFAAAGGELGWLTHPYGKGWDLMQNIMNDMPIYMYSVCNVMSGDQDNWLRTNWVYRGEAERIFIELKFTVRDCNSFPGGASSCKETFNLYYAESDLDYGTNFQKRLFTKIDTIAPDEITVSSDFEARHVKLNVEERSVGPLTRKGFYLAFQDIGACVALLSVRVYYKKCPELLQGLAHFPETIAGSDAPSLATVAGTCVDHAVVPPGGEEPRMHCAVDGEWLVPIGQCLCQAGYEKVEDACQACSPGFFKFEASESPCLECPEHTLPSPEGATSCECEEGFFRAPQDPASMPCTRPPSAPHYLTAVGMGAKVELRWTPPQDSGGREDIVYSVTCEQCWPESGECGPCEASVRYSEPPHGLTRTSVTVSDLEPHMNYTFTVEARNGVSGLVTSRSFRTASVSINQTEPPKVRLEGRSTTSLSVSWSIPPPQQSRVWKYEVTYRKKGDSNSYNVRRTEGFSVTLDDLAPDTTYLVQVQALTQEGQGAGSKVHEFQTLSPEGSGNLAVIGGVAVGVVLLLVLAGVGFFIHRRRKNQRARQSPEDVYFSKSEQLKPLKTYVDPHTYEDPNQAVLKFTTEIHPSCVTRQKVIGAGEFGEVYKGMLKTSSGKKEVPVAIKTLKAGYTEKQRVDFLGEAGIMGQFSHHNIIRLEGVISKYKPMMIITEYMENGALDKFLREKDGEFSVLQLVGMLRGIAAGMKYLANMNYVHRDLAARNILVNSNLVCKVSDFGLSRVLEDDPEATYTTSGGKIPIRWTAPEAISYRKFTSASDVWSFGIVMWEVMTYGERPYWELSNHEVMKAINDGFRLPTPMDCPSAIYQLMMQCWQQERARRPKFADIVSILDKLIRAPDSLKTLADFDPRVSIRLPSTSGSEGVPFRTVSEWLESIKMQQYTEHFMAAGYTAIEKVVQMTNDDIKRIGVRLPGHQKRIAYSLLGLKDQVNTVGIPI
Experimental: as §1

PIM1 = biological target: T27, PIM1 (Homo sapiens, UniProt P11309)
T27 construct: purchased Thermo Fisher Scientific (SelectScreen service)
Experimental: as §1

ROS1 = biological target: T28, ROS1 (Homo sapiens, UniProt P08922)
T28 construct: purchased Thermo Fisher Scientific (SelectScreen service)
Experimental: as §1

JAK2 = biological target: T29, JAK2 (Homo sapiens, UniProt O60674)
T29 construct: purchased Thermo Fisher Scientific (SelectScreen service)
T29 sequence (O60674 whole entry): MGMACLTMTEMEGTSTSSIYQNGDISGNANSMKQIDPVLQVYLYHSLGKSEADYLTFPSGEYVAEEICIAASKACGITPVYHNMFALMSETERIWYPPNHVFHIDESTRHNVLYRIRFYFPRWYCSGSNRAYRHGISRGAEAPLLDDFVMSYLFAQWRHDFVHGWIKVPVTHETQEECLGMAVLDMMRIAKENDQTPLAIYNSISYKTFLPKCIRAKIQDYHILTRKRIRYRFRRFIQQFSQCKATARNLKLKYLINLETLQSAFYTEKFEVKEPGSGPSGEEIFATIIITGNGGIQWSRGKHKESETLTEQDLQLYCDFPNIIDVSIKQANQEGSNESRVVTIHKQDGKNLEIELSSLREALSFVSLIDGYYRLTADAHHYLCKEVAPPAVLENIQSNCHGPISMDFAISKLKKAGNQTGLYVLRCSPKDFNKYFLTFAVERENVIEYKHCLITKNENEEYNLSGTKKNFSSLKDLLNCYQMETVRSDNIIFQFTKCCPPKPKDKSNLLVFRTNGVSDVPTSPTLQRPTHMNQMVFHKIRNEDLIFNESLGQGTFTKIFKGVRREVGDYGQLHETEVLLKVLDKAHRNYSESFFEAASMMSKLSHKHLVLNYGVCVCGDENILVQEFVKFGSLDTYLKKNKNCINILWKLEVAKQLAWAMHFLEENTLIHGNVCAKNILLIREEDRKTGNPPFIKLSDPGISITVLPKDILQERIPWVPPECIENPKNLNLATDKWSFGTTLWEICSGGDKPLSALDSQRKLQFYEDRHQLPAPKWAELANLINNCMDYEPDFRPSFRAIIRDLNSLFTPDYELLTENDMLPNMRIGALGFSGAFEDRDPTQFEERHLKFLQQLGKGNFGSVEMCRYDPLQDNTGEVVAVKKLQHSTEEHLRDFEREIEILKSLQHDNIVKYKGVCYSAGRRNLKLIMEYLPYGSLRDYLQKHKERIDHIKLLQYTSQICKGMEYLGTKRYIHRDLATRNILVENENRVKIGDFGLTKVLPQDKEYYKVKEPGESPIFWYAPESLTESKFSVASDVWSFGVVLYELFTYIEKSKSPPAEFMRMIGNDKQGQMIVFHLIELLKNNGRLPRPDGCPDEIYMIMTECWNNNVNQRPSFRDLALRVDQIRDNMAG
Experimental: as §1

FGFR4 = biological target: T30, FGFR4 (Homo sapiens, UniProt P22455)
T30 construct: purchased Thermo Fisher Scientific (SelectScreen service)
Experimental: as §1

ZAK = biological target: T31, ZAK (Homo sapiens, UniProt Q9NYL2)
T31 construct: purchased Thermo Fisher Scientific (SelectScreen service)
Experimental: as §1

BMX = biological target: T32, BMX (Homo sapiens, UniProt P51813)
T32 construct: purchased Thermo Fisher Scientific (SelectScreen service)
Experimental: as §1

ALK = biological target: T33, ALK (Homo sapiens, UniProt Q9UM73)
T33 construct: purchased Thermo Fisher Scientific (SelectScreen service)
Experimental: as §1

FES = biological target: T34, FES (Homo sapiens, UniProt P07332)
T34 construct: purchased Thermo Fisher Scientific (SelectScreen service)
Experimental: as §1

PDGFRA = biological target: T35, PDGFRA (Homo sapiens, UniProt P16234)
T35 construct: purchased Thermo Fisher Scientific (SelectScreen service)
Experimental: as §1

EPHA1 = biological target: T36, EPHA1 (Homo sapiens, UniProt P21709)
T36 construct: purchased Thermo Fisher Scientific (SelectScreen service)
Experimental: as §1

AXL = biological target: T37, AXL (Homo sapiens, UniProt P30530)
T37 construct: purchased Thermo Fisher Scientific (SelectScreen service)
Experimental: as §1

IGF1R = biological target: T38, IGF1R (Homo sapiens, UniProt P08069)
T38 construct: purchased Thermo Fisher Scientific (SelectScreen service)
Experimental: as §1

LYN = biological target: T39, LYN (Homo sapiens, UniProt P07948)
T39 construct: purchased Thermo Fisher Scientific (SelectScreen service)
Experimental: as §1

EPHA5 = biological target: T40, EPHA5 (Homo sapiens, UniProt P54756)
T40 construct: purchased Thermo Fisher Scientific (SelectScreen service)
Experimental: as §1

JAK3 = biological target: T41, JAK3 (Homo sapiens, UniProt P52333)
T41 construct: purchased Thermo Fisher Scientific (SelectScreen service)
Experimental: as §1

DDR2 = biological target: T42, DDR2 (Homo sapiens, UniProt Q16832)
T42 construct: purchased Thermo Fisher Scientific (SelectScreen service)
Experimental: as §1

Measured: IC50

Cc1ccc(O)c(C)c1-n1c(N)c(C(N)=O)c2cc(CCCCCC(=O)NO)c(C)nc21 [PKHD-5]
> 50 µM: all assays above
